Results taken from patent US20110086759A1, “CHEMICAL COMPOUNDS” (SYNGENTA CROP PROTECTION, INC., priority 2007, published 2011).

Assays:
Type in all cases: in vivo
[1] = test system: Amaranthus retoflexus (AMARE); assay: Pre-emergence biological efficacy, glasshouse pot test; details: Amaranthus retroflexus, 312 h; pre-emergence, rate 1,000 g/ha, evaluated after 13 days (100=total damage to plant; 0=no damage); read-out: Percentage damage caused to weed species, AMARE
Procedure, shortened: (§1)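 One day after sowing in standard soil, pots were sprayed with compound in acetone/water (50:50) with 0.5% Tween 20, at 1000 or 250 g/ha. Plants grew at 24/16° C day/night, 14 h light, 65% humidity. Damage was scored after 13 days (0 = none, 100 = total).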

Solanum nigrum (SOLNI) [2] = assay: as above; details: 312 h, pre-emergence, rate 1,000 g/ha, evaluated after 13 days (100=total damage to plant; 0=no damage), read-out: Percentage damage caused to weed species, SOLNI
Procedure, shortened: as §1

[3] = test system: Echinochloa crus-galli (ECHCG); assay: as above; details: 312 h, pre-emergence, rate 1,000 g/ha, evaluated after 13 days (100=total damage to plant; 0=no damage), read-out: Percentage damage caused to weed species, ECHCG
Procedure, shortened: as §1

[4] = test system: Ipomea hederaceae (IPOHE); assay: as above; details: Ipomoea hederacea, 312 h; pre-emergence, rate 1,000 g/ha, evaluated after 13 days (100=total damage to plant; 0=no damage); read-out: Percentage damage caused to weed species, IPOHE
Procedure, shortened: as §1

[5] = test system: Alopecurus myosuroides (ALOMY); assay: as above; details: 312 h, pre-emergence, rate 1,000 g/ha, evaluated after 13 days (100=total damage to plant; 0=no damage), read-out: Percentage damage caused to weed species, ALOMY
Procedure, shortened: as §1

Setaria faberi (SETFA) [6] = assay: as above; details: 312 h, pre-emergence, rate 1,000 g/ha, evaluated after 13 days (100=total damage to plant; 0=no damage), read-out: Percentage damage caused to weed species, SETFA
Procedure, shortened: as §1

[7] = test system: Amaranthus retoflexus (AMARE); assay: Post-emergence biological efficacy, glasshouse pot test; details: Amaranthus retroflexus, 312 h; Rate 1,000 g/ha; post-emergence spray; evaluated after 13 days (100=total damage to plant; 0=no damage to plant); read-out: Percentage damage caused to weed species, post-emergence, AMARE
Procedure, shortened: (§2)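 Pot-grown weeds were sprayed 8 days after sowing with test compound in acetone/water (50:50) with 0.5% Tween 20 at 1000 or 250 g/ha. Glasshouse at 24/16° C day/night, 14 h light, 65% humidity. Damage scored 0-100 (100 = total damage) after 13 days.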

Solanum nigrum (SOLNI) [8] = assay: as above; details: 312 h, Rate 1,000 g/ha, post-emergence spray, evaluated after 13 days (100=total damage to plant; 0=no damage to plant), read-out: Percentage damage caused to weed species, post-emergence, SOLNI
Procedure, shortened: as §2

[9] = test system: Echinochloa crus-galli (ECHCG); assay: as above; details: 312 h, Rate 1,000 g/ha, post-emergence spray, evaluated after 13 days (100=total damage to plant; 0=no damage to plant), read-out: Percentage damage caused to weed species, post-emergence, ECHCG
Procedure, shortened: as §2

[10] = test system: Ipomea hederaceae (IPOHE); assay: as above; details: Ipomoea hederacea, 312 h; Rate 1,000 g/ha; post-emergence spray; evaluated after 13 days (100=total damage to plant; 0=no damage to plant); read-out: Percentage damage caused to weed species, post-emergence, IPOHE
Procedure, shortened: as §2

[11] = test system: Alopecurus myosuroides (ALOMY); assay: as above; details: 312 h, Rate 1,000 g/ha, post-emergence spray, evaluated after 13 days (100=total damage to plant; 0=no damage to plant), read-out: Percentage damage caused to weed species, post-emergence, ALOMY
Procedure, shortened: as §2

Setaria faberi (SETFA) [12] = assay: as above; details: 312 h, Rate 1,000 g/ha, post-emergence spray, evaluated after 13 days (100=total damage to plant; 0=no damage to plant), read-out: Percentage damage caused to weed species, post-emergence, SETFA
Procedure, shortened: as §2

Row | SMILES | pest or weed control at 1000 g/ha [1] [%] | pest or weed control at 1000 g/ha (Solanum nigrum (SOLNI) [2]) [%] | pest or weed control at 1000 g/ha [3] [%] | pest or weed control at 1000 g/ha [4] [%] | pest or weed control at 1000 g/ha [5] [%] | pest or weed control at 1000 g/ha (Setaria faberi (SETFA) [6]) [%] | pest or weed control at 1000 g/ha [7] [%] | pest or weed control at 1000 g/ha (Solanum nigrum (SOLNI) [8]) [%] | pest or weed control at 1000 g/ha [9] [%] | pest or weed control at 1000 g/ha [10] [%] | pest or weed control at 1000 g/ha [11] [%] | pest or weed control at 1000 g/ha (Setaria faberi (SETFA) [12]) [%]
1 | O=C(NCc1ccccc1)c1nc(C2CC2)nc(NCc2ccccc2)c1Cl [Compound 265-1, 5-chloro-2-cyclopropyl-4-phenylmethylamino-6-phenylmethylaminocarbonyl pyrimidine] | 30 | 10 | 0 | 0 | 0 | 0 | 80 | 50 | 0 | 70 | 10 | 0
2 | O=C(NCc1ccco1)c1nc(C2CC2)nc(NCc2ccco2)c1Cl [Compound 265-3, 5-Chloro-2-cyclopropyl-4-(furan-2-ylmethylamino)-6-(furan-2-yl-methylamino-carbonyl)-pyrimidine] | 60 | 60 | 30 | 90 | 20 | 40 | 70 | 70 | 30 | 70 | 20 | 20
3 | O=C(NCc1cccs1)c1nc(C2CC2)nc(NCc2cccs2)c1Cl [Compound 265-4, 5-Chloro-2-cyclopropyl-4-(thiophen-2-ylmethylamino)-6-(thiophen-2-yl-methylamino-carbonyl)-pyrimidine] | 20 | 0 | 0 | 0 | 0 | 0 | 50 | 50 | 20 | 50 | 20 | 20
4 | Cc1c(NCC2CC2)nc(C2CC2)nc1OCC(=O)NCC1CC1 [Compound 266-20, 2-cyclopropyl-4-cyclopropylmethylamino-6-cyclopropylmethylaminocarbonylmethoxy-5-methylpyrimidine] | 100 | 50 | 0 | 40 | 0 | 0 | 90 | 80 | 0 | 70 | 0 | 0
